From patent US9920032B2, “Heterocyclic compounds useful as pim kinase inhibitors” (Incyte Corporation, priority 2015, dated 2018) come the findings set out here.

Common to all, as to assay type: biochemical
One experiment has as its target Pim-2 (Homo sapiens (Human), UniProt Q9P1W9). Briefly: Pim-2 kinase assay. To be noted: 1 mM ATP; read-out: PIM2 IC50. Here is the method:
Pim-2 kinase assay—20 μL reactions were run in white 384 well polystyrene plates dotted with 0.8 μL compound/DMSO in the assay buffer (50 mM Tris, pH 7.5, 0.01% Tween-20, 5 mM mgCl2, 0.01% BSA, 5 mM DTT), containing 0.05 μM Fluorescein-labeled CREBtide peptide substrate (Invitrogen PV3508), 1 mM ATP, and 1 nM enzyme (Invitrogen PV3649) for 2 h at 25° C. Reactions were stopped by addition of 10 μL TR-FRET Dilution Buffer (Invitrogen PV3574) with 30 mM EDTA and 1.5 nM LanthaScreen Tb-CREB pSer133 antibody (Invitrogen PV3566). After 30 min. incubation at room temperature, plates were read on a PHERAstar FS plate reader (BMG Labtech).

The target in a further experiment is Pim-3 (Homo sapiens (Human), UniProt Q86V86). Briefly: Pim-3 kinase assay. To be noted: 1 mM ATP; read-out: PIM3 IC50. The protocol:
(§1) Pim-1 and Pim-3 kinase assays—20 μL reactions were run in white 384 well polystyrene plates dotted with 0.8 μL compound/DMSO in the assay buffer (50 mM Tris, pH 7.5, 0.01% Tween-20, 5 mM mgCl2, 0.01% BSA, 5 mM DTT), containing 0.05 μM Biotin-labeled BAD peptide substrate (AnaSpec 62269), 1 mM ATP, and 2.5 pM (Pim-1, Invitrogen PV3503) or 1.25 pM (Pim-3, Millipore 14-738) enzyme for 1 h at 25° C. Reactions were stopped by addition of 10 μL STOP Buffer (150 mM Tris, pH=7.5, 150 mM NaCl, 75 mM EDTA, 0.01% Tween-20, 0.3% BSA,) supplemented with Phospho-Bad (Ser112) Antibody (Cell Signaling 9291) diluted 666-fold, and Streptavidin donor beads (PerkinElmer 6760002) along with Protein-A acceptor beads (PerkinElmer 6760137) at […]. Supplementation of the STOP buffer with beads and stopping the reactions were done under reduced light. Prior to the stopping reactions STOP buffer with beads was preincubated for 1 h in the dark at room temperature. After stopping the reactions, plates were incubated for 1 h in the dark at room temperature before reading on a PHERAstar FS plate reader (BMG Labtech) under reduced light.

The next experiment has as its target Pim-1 (Homo sapiens (Human), UniProt P11309). Briefly: Pim-1 kinase assay. The note with it: 1 mM ATP; read-out: PIM1 IC50. The protocol:
as §1

pIC50: −log10 of the molar value.

Sequence of Pim-1 (P11309 whole entry): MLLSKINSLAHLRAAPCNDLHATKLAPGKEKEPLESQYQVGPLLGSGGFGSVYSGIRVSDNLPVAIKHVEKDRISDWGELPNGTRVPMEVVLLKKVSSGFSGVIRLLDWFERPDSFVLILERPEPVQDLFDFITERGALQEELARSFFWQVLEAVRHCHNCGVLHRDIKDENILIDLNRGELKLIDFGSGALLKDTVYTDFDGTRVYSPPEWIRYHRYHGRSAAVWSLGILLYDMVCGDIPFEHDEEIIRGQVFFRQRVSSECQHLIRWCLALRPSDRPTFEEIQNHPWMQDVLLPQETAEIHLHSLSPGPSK
Sequence of Pim-2 (Q9P1W9 whole entry): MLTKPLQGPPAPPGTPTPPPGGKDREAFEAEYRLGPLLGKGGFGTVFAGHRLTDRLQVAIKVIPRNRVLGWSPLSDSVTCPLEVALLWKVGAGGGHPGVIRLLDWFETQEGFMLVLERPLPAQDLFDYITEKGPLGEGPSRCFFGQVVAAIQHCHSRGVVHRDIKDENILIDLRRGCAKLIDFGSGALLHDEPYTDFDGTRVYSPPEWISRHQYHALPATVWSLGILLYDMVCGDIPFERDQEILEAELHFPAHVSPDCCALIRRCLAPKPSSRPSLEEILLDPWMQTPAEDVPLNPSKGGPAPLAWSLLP

What is called pIC50 is −log10 of the IC50, conventionally taken in molar units. For `C[C@@H]1C[C@H](N)C[C@H](c2ccncc2NC(=O)c2ccc(F)c3cc(N4CCCCO4)cnc23)C1` [Example 109, N-(4-((1R,3S,5S)-3-amino-5-methylcyclohexyl)pyridin-3-yl)-5-fluoro-3-(1,2-oxazinan-2-yl)quinoline-8-carboxamide], the negative logarithm of the IC50 (pIC50) was ≥ 7.00 at Pim-2, ≥ 8.00 at Pim-3 and ≥ 8.00 at Pim-1.
Take `C[C@@H]1C[C@H](N)C[C@H](c2ccncc2NC(=O)c2ccc(F)c3cc(N4CCCC[C@@H]4C)cnc23)C1` [Example 170, N-(4-((1R,3S,5S)-3-Amino-5-methylcyclohexyl)pyridin-3-yl)-5-fluoro-3-((S)-2-methylpiperidin-1-yl)quinoline-8-carboxamide]: the pIC50 at Pim-2 was 6.00 to 7.00; on Pim-3 it was 7.30 to 8.00; at Pim-1, ≥ 8.00.
`CO[C@@H]1C[C@H](C)N(c2cnc3c(C(=O)Nc4cnccc4[C@@H]4C[C@H](C)C[C@H](N)C4)ccc(F)c3c2)C1` [Example 155, N-(4-((1R,3S,5S)-3-Amino-5-methylcyclohexyl]pyridin-3-yl}-5-fluoro-3-[(2S,4R)-4-methoxy-2-methylpyrrolidin-1-yl]quinoline-8-carboxamide]: the negative logarithm of the IC50 (pIC50) on Pim-2 was ≥ 7.00; at Pim-3, ≥ 8.00; on Pim-1, ≥ 8.00.
`C[C@@H]1C[C@H](N)C[C@H](c2ccncc2NC(=O)c2ccc(F)c3cc(N4CCN(C(=O)N(C)C)CC4)cnc23)C1` [Example 82, N-(4-((1R,3S,5S)-3-Amino-5-methylcyclohexyl)pyridin-3-yl)-3-(4-(dimethylcarbamoyl)piperazin-1-yl)-5-fluoroquinoline-8-carboxamide]: the pIC50 was 6.00 to 7.00 at Pim-2, ≥ 8.00 at Pim-3 and ≥ 8.00 on Pim-1.
With `C[C@@H]1C[C@H](N)C[C@H](c2ccncc2NC(=O)c2ccc(F)c3cc(N4CCOC[C@H]4C)cnc23)C1` [Example 32, N-(4-((1R,3S,5S)-3-Amino-5-methylcyclohexyl)pyridin-3-yl)-5-fluoro-3-((R)-3-methylmorpholino)quinoline-8-carboxamide], the negative-log IC50 (pIC50) is ≥ 7.00 on Pim-2, ≥ 8.00 on Pim-3 and ≥ 8.00 at Pim-1.
`C[C@@H]1C[C@H](N)C[C@H](c2ccncc2NC(=O)c2ccc(F)c3cc(N(C)C4CCCOC4)cnc23)C1` (stereo partly drawn) [Example 151]: the values for the negative-log IC50 (pIC50) at Pim-2, at Pim-3 and on Pim-1 were ≥ 7.00, ≥ 8.00 and ≥ 8.00, respectively.
For `C[C@@H]1C[C@H](N)C[C@H](c2ccncc2NC(=O)c2ccc(F)c3cc(N4C5CCC4CC(O)C5)cnc23)C1` (stereo partly drawn) [Example 98, N-(4-((1R,3S,5S)-3-Amino-5-methylcyclohexyl)pyridin-3-yl)-5-fluoro-3-(3-hydroxy-8-azabicyclo[3.2.1]octan-8-yl)quinoline-8-carboxamide], the negative-log IC50 (pIC50) at Pim-2 was ≥ 7.00; at Pim-3 it was ≥ 8.00; on Pim-1, ≥ 8.00.
As for `CC1CN(c2cnc3c(C(=O)Nc4cnccc4[C@@H]4C[C@H](C)C[C@H](N)C4)ccc(F)c3c2)C(C)CO1` (stereo partly drawn) [Example 35, N-(4-((1R,3S,5S)-3-Amino-5-methylcyclohexyl)pyridin-3-yl)-3-(2,5-dimethylmorpholino)-5-fluoroquinoline-8-carboxamide], the pIC50 on Pim-2 is 5.00 to 6.00; on Pim-3 it was 7.30 to 8.00; at Pim-1, ≥ 8.00.
For `C[C@@H]1C[C@H](N)C[C@H](c2ccncc2NC(=O)c2ccc(F)c3cc(N4CC5COCC5C4)cnc23)C1` (stereo partly drawn) [Example 110, N-(4-((1R,3S,5S)-3-Amino-5-methylcyclohexyl)pyridin-3-yl)-3-(dihydro-1H-furo[3,4-c]pyrrol-5(3H,6H,6aH)-yl)-5-fluoroquinoline-8-carboxamide] the same measures were ≥ 7.00, ≥ 8.00 and ≥ 8.00.
